Experimental findings from patent publication US20150011751A1, “NOVEL TRIAZINE DERIVATIVE” (CARNA BIOSCIENCES, INC., priority 2012, published 2015) are described below.

Chain of Dephosphorylated BTK (Q06187 whole entry): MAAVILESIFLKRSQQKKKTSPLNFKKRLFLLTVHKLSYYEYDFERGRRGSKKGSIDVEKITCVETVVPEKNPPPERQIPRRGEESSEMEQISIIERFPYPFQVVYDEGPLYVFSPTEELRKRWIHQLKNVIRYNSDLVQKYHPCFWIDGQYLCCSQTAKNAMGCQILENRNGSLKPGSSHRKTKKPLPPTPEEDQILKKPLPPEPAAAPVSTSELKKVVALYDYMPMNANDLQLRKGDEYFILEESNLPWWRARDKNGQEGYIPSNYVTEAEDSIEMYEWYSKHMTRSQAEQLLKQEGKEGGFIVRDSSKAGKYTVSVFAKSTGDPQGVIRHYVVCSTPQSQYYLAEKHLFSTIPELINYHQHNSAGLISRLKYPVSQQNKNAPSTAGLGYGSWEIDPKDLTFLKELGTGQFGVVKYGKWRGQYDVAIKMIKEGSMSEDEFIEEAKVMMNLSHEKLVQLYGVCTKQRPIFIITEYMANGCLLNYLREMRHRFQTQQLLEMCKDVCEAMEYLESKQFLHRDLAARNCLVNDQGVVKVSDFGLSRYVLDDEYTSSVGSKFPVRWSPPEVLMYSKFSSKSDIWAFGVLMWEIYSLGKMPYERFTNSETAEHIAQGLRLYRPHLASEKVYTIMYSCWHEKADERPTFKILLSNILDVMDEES

This assay has as its target Dephosphorylated BTK (Homo sapiens, UniProt Q06187). Kind of assay: Test of activity inhibition against dephosphorylated BTK (mobility shift assay).
By IC50 is commonly meant the midpoint of a concentration-inhibition curve. As for `Nc1nc(Nc2cnn(C3CCNCC3)c2)nc(-c2cccc(N3CCc4cc(C5CC5)cc(F)c4C3=O)c2CO)n1` [Example 223, 2-[3-(4-Amino-6-{[1-(piperidin-4-yl)-1H-py-razol-4-yl]amino}-1,3,5-triazin-2-yl)-2-(hy-droxymethyl)phenyl]-6-cyclopropyl-8-fluoro-3,4-dihydro-isoquinolin-1(2H)-one], the IC50 came out at 0.6 nM.

Turning to `CC(C)(C)c1ccc(C(=O)Nc2cccc(-c3nc(N)nc(Nc4ccc5[nH]c(C(F)(F)F)nc5c4)n3)c2CO)cc1` [Example 187, N-[3-(4-Amino-6-{[2-(tri-fluoromethyl)-1H-benzo[d]imidazol-5-yl]amino}-1,3,5-triazin-2-yl)-2-(hydroxymeth-yl)phenyl]-4-(tert-butyl)benzamide], the IC50 is 5.6 nM.

For `N#CCc1ccc(Nc2nc(N)nc(-c3cccc(N4CCc5cc(C6CC6)cc(F)c5C4=O)c3CO)n2)cc1` [Example 190, 2-[4-({4-Amino-6-[3-(6-cyclopropyl-8-fluoro-1-oxo-3,4-dihydroiso-quinolin-2(1H)-yl)-2-(hydroxymethyl)phenyl]-1,3,5-triazin-2-yl}amino)phenyl]acetonitrile], the IC50 turned out to be 1.4 nM.

Take `CN1CCN(C)C(c2ccc(Nc3nc(N)nc(-c4cccc(N5Cc6cc(C(C)(C)C)sc6C5=O)c4CO)n3)cc2)C1=O` (stereo not shown) [Example 83, 5-[3-(4-Amino-6-{[4-(1,4-dimethyl-3-oxo-piperazin-2-yl)phenyl]ami-no}-1,3,5-triazin-2-yl)-2-(hydroxymethyl)phenyl]-2-(tert-butyl)-4H-thieno[2,3-c]pyr-rol-6(5H)-one]: the IC50 came to 1.8 nM.

Consider `Nc1nc(Nc2ccc(N3CCOCC3)cc2)nc(-c2cccc(NC(=O)c3cc4c(s3)CCC4)c2CO)n1` [Example 175, N-(3-{4-Amino-6-[(4-morpholinophenyl)amino]-1,3,5-triazin-2-yl}-2-(hydroxymethyl)phe-nyl)-5,6-dihydro-4H-cyclopenta[b]thiophene-2-carboxamide], for which the IC50 came to 3.6 nM.

With `CC(C)(C)OC(=O)N1CCN(c2ccc(Nc3nc(N)nc(-c4cccc(NC(=O)c5ccc(C(C)(C)C)cc5)c4CO)n3)cc2)CC1` [Example 104, tert-Butyl 4-{4-[(4-amino-6-{3-[4-(tert-butyl)benzamido]-2-(hydroxymethyl)phenyl}-1,3,5-triazin-2-yl)amino]phenyl} piperazine-1-carboxylate], the IC50 came out at 5 nM.

On to `Cc1c(NC(=O)c2cc3c(s2)CCCC3)cccc1-c1nc(N)nc(Nc2ccc(C(=O)N3CCOCC3)cc2)n1` [Example 66, N-[3-(4-Amino-6-{[4-(morpho-line-4-carbonyl)phenyl]amino}-1,3,5-triazin-2-yl)-2-methyl-phenyl]-4,5,6,7-tetra-hydrobenzo[b]thiophene-2-carboxamide], for which the IC50 is 3.2 nM.

`Nc1nc(Nc2ccc(CN3CCOCC3)cc2)nc(-c2cccc(N3CCc4cc(C5CC5)cc(F)c4C3=O)c2CO)n1` [Example 45, 2-[3-(4-Amino-6-{[4-(morpho-linomethyl)phe-nyl]amino}-1,3,5-tri-azin-2-yl)-2-(hydroxymeth-yl)phenyl]-6-cyclopro-pyl-8-fluoro-3,4-di-hydroisoquinolin-1(2H)-one]: the IC50 was 1.7 nM.

Turning to `Nc1nc(Nc2cccc(Cn3cncn3)c2)nc(-c2cccc(N3CCc4cc(C5CC5)cc(F)c4C3=O)c2CO)n1` [Example 51, 2-{3-[4-({3-[(1H-1,2,4-Triazol-1-yl)methyl]phenyl}amino)-6-amino-1,3,5-triazin-2-yl]-2-(hydroxymethyl)phe-nyl}-6-cyclopropyl-8-fluoro-3,4-dihydroiso-quinolin-1(2H)-one], the IC50 was found to be 2 nM.

As for `Nc1nc(Nc2ccc(N3CCOCC3)nc2)nc(-c2cccc(N3CCc4cc(C5CC5)cc(F)c4C3=O)c2CO)n1` [Example 46, 2-(3-{4-Amino-6-[(6-morpho-linopyridin-3-yl)amino]-1,3,5-triazin-2-yl}-2-(hydroxymeth-yl)phenyl)-6-cyclopro-pyl-8-fluoro-3,4-dihy-droisoquinolin-1(2H)-one], the IC50 came out at 5.2 nM.
